Bounds are passed on as bounds.

Sequence of human TRPA1 channel (O75762 whole entry): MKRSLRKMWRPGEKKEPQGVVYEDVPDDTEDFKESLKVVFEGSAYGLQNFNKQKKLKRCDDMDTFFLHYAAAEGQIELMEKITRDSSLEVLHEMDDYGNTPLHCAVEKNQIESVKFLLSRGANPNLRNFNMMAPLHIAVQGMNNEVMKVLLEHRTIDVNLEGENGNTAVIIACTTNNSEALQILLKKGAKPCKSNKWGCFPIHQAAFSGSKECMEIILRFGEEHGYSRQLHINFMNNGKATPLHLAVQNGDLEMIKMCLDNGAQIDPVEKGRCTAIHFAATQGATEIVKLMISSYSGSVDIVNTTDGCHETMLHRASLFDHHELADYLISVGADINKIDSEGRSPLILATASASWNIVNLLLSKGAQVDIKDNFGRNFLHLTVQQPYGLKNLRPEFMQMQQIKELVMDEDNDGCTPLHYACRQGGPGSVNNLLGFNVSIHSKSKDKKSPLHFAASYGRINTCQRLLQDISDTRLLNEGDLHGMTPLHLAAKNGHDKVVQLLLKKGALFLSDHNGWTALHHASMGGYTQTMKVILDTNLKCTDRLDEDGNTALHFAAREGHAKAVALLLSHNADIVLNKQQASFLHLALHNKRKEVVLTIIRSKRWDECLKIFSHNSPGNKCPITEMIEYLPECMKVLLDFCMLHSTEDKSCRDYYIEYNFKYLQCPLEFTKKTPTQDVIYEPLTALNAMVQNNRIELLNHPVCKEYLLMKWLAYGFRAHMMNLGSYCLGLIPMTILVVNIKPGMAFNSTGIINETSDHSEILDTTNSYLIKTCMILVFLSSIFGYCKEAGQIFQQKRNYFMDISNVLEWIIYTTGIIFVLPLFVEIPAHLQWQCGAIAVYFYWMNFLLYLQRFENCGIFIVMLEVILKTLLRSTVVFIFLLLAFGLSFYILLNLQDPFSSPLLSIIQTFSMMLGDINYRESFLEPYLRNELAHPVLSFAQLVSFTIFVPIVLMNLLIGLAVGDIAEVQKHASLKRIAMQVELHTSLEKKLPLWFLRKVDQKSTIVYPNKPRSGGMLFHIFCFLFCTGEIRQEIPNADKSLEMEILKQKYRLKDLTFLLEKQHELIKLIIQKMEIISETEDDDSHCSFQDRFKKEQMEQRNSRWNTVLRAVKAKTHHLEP

The test concerns the target human TRPA1 channel (Homo sapiens (Human), UniProt O75762). The test can be described thus: TRPA1 inhibitor activity, automated patch clamp (SyncroPatch). In kind it is cell-based. As to conditions: CHO cells inducibly expressing human TRPA1; currents elicited by carvacrol (300 μM), holding potential −60 mV; Table 4. How it is done: This assay was used to evaluate the disclosed compounds' inhibition activities against the human TRPA1 channel.
CHO cells inducibly expressing human TRPA1 were grown in DMEM containing 10% heat-inactivated FBS, 1 mM Sodium Pyruvate, 2 mM L-Glutamine, Zeocin (100 μg/ml) and Blasticidin (10 μg/ml). Expression was induced by addition of Doxycycline (1 μg/ml) 24 hours before experiments. Cells used for electrophysiology were plated in plastic culture flasks and grown at 37° C. in a 5% CO2-humidified tissue culture incubator per ChanPharm SOP. Stocks were maintained in cryogenic storage.
The cells were bathed in an extracellular solution containing 80 mM NaCl, 60 mM NMDG, 4 mM KCl, 2 mM CaCl2), 6 mM MgCl2, 5 mM Glucose. 10 mM HEPES, 3 mM HEDTA; pH adjusted to 7.4 with NaOH; 305-310 mOsm. All compounds were dissolved in DMSO at 30 mM. The internal solution contained 10 mM CsCl, 110 mM CsF, 10 mM NaCl, 10 mM EGTA, 10 mM HEPES, 4 mM MgATP, 0.25 mM NaGTP, 4 mM BAPTA; pH adjusted to 7.2 with CsOH; 285-290 mOsm. Compound stock solutions were freshly diluted with external solution to concentrations of 3 nM, 10 nM 30 nM, 100 nM, 300 nM, 1 μM, 3 μM, 10 μM, and 30 μM. The highest content of DMSO (0.1%) was present at 30 μM.
All experiments were performed at room temperature. Each cell acted as its own control. In preparation for a current recording session, intracellular solution (see above) was loaded into the intracellular compartments of the automated patch clamp platform SyncroPatch (Nanion) chip and the cell suspension was pipetted into the extracellular compartments. After establishment of a whole-cell configuration, membrane current recordings and compound application were enabled by means of the SyncroPatch. TRPA1 currents were elicited by application of carvacrol (300 μM) at a constant holding potential of −60 mV (see Table A below).
To determine IC50 values, AUC and peak values, obtained in the presence of a given compound concentration, were normalized to control values in absence of compound. Using DataControl384 (Nanion's proprietary software), IC50 values were derived by fitting the normalized data to the Hill equation.
A general note: The patch-clamp technique gives a direct electrical read-out from membranes.
One may read the IC50 as the concentration at which inhibition is half-maximal. Turning to `Cc1cccn(Cc2nc(CCc3ccc(Cl)cc3)no2)c1=O` [Compound 1, 1-((3-(4-chlorophenethyl)-1,2,4-oxadiazol-5-yl)methyl)-3-methylpyridin-2(1H)-one], the IC50 was less than 10000 nM.

`Cc1cc(C#N)cn(Cc2nc(CCc3ccc(Cl)cc3)no2)c1=O` [Compound 2, 1-((3-(4-chlorophenethyl)-1,2,4-oxadiazol-5-yl)methyl)-5-methyl-6-oxo-1,6-dihydropyridine-3-carbonitrile] yielded an IC50 of less than 1000 nM.

For the compound `N#Cc1cc(Br)c(=O)n(Cc2nc(CCc3ccc(Cl)cc3)no2)c1` [Compound 3, 5-bromo-1-((3-(4-chlorophenethyl)-1,2,4-oxadiazol-5-yl)methyl)-6-oxo-1,6-dihydropyridine-3-carbonitrile], the IC50 was less than 1000 nM.

Compound `Cc1cc(Cl)cn(Cc2nc(CCc3ccc(Cl)cc3)no2)c1=O` [Compound 5, 5-chloro-1-((3-(4-chlorophenethyl)-1,2,4-oxadiazol-5-yl)methyl)-3-methylpyridin-2(1H)-one] returned an IC50 of less than 3000 nM.

The compound `O=c1c(C(F)(F)F)cccn1Cc1nc(CCc2ccc(Cl)cc2)no1` [Compound 7, 1-((3-(4-chlorophenethyl)-1,2,4-oxadiazol-5-yl)methyl)-3-(trifluoromethyl)pyridin-2(1H)-one] yielded a half-maximal inhibitory concentration (IC50) of less than 10000 nM.

On to `CNC(=O)c1cc(C)c(=O)n(Cc2nc(CCc3ccc(Cl)cc3)no2)c1` [Compound 9, 1-((3-(4-chlorophenethyl)-1,2,4-oxadiazol-5-yl)methyl)-N,5-dimethyl-6-oxo-1,6-dihydropyridine-3-carboxamide], for which the IC50 was less than 1000 nM.

`COC(=O)c1cc(C)c(=O)n(Cc2nc(CCc3ccc(Cl)cc3)no2)c1` [Compound 10, methyl 1-((3-(4-chlorophenethyl)-1,2,4-oxadiazol-5-yl)methyl)-5-methyl-6-oxo-1,6-dihydropyridine-3-carboxylate] came in with an IC50 of less than 3000 nM.

As for `Cc1c(CO)ccn(Cc2nc(CCc3ccc(Cl)cc3)no2)c1=O` [Compound 11, 1-((3-(4-chlorophenethyl)-1,2,4-oxadiazol-5-yl)methyl)-4-(hydroxymethyl)-3-methylpyridin-2(1H)-one], the IC50 was less than 3000 nM.

Compound `Cc1c(Br)ccn(Cc2nc(CCc3ccc(Cl)cc3)no2)c1=O` [Compound 12, 4-bromo-1-((3-(4-chlorophenethyl)-1,2,4-oxadiazol-5-yl)methyl)-3-methylpyridin-2(1H)-one] showed an IC50 of less than 3000 nM.

With `C=Cc1ccn(Cc2nc(CCc3ccc(Cl)cc3)no2)c(=O)c1C` [Compound 13, 1-((3-(4-chlorophenethyl)-1,2,4-oxadiazol-5-yl)methyl)-3-methyl-4-vinylpyridin-2(1H)-one], the IC50 was less than 3000 nM.

On to `Cc1c(-c2cn[nH]c2)ccn(Cc2nc(CCc3ccc(Cl)cc3)no2)c1=O` [Compound 15, 1-((3-(4-chlorophenethyl)-1,2,4-oxadiazol-5-yl)methyl)-3-methyl-4-(1H-pyrazol-4-yl)pyridin-2(1H)-one], for which the 50% inhibitory concentration (IC50) was less than 3000 nM.

On to `Cc1cc(CO)cn(Cc2nc(CCc3ccc(Cl)cc3)no2)c1=O` [Compound 16, 1-((3-(4-chlorophenethyl)-1,2,4-oxadiazol-5-yl)methyl)-5-(hydroxymethyl)-3-methylpyridin-2(1H)-one], for which the IC50 was less than 3000 nM.

`Cc1cc(CC#N)cn(Cc2nc(CCc3ccc(Cl)cc3)no2)c1=O` [Compound 19, 2-(1-((3-(4-chlorophenethyl)-1,2,4-oxadiazol-5-yl)methyl)-5-methyl-6-oxo-1,6-dihydropyridin-3-yl)acetonitrile] registered an IC50 of less than 1000 nM.

The compound `Cc1cc(CC(N)=O)cn(Cc2nc(CCc3ccc(Cl)cc3)no2)c1=O` [Compound 20, 2-(1-((3-(4-chlorophenethyl)-1,2,4-oxadiazol-5-yl)methyl)-5-methyl-6-oxo-1,6-dihydropyridin-3-yl)acetamide] had an IC50 of less than 10000 nM.

The values above are taken from patent US20250270198A1, “PYRIDONE COMPOUNDS AS TRPA1 INHIBITORS” (D. E. Shaw Research, LLC, priority 2022, published 2025).
